Test results as given in US7432050B2, “Methods and compositions for detecting colon cancers” (Case Western Reserve University, priority 2001, dated 2008).
Entries after “also recorded” stand apart in the source; their conditions may differ.

Tested on: HLTF expression
Experiment: RT-PCR assay for HLTF expression reactivation after 5-azacytidine treatment
Format: cell-based, human
Protocol: The cultures were grown and treated as described previously (Veigl, et al., 1998, Proc. Natl. Acad. Sci. USA, 95:8698-8702). The optimal tolerated doses were determined for each treated line, and two doses were used for some lines, ranging from 1 μg/ml to 3 μg/ml.
To establish that methylation was responsible for silencing HLTF gene expression, cell lines with HLTF DNA methylation were treated with 5-azacytidine (5-azaC), a demethylating agent.

Nc1ncn([C@@H]2O[C@H](CO)[C@@H](O)[C@H]2O)c(=O)n1 [5-azaC, 5-azacytidine]
reactivation of HLTF expression (colon cancer cell lines with HLTF DNA methylation (RCA, V457, SW480, V5, V6, V432), 1 μg/ml to 3 μg/ml): reactivates HLTF expression; also recorded: reactivated HLTF expression in all these cell lines | change of HLTF expression in control cell lines (control cell lines with constitutive HLTF expression and unmethylated HLTF DNA (V429, V503)): did not further increase HLTF expression
